# Measurements from ChEMBL document CHEMBL3885861, “Open TG-GATES”.
# Species: Rattus norvegicus
# Experiment: Open TG-GATES - Regimen: Daily Repeat
# Format: toxicity, organism-based, Sprague-Dawley
# Parameters: regimen Daily Repeat, gender Male, age 6 weeks
# Details: in vivo, po, 1000 mg/kg, route gavage, dose level High; for APTT / Bas / Eos / Fbg / Hb / Ht / Lym / MCH / MCHC / MCV / Mono / Neu / PT / Plat / RBC / Ret / WBC: tissue Blood; for KIDNEY_L / KIDNEY_R / KIDNEY_TOTAL: tissue Kidney; for LIVER: tissue Liver; for A/G / ALP / ALT / AST / BUN / CRE / Ca / Cl / DBIL / GLC / IP / K / LDH / Na / PL / RALB / TBIL / TC / TG / TP / gamma-GTP: tissue Plasma
structure (smiles),measurement,setting,value
CNC(=C[N+](=O)[O-])NCCSCc1ccc(CN(C)C)o1 [RANITIDINE],TERMINAL_BW,"72 h, time 3 day",237.1 g
same,APTT,"72 h, time 3 day",20.1 s
same,Bas,"72 h, time 3 day",0%
same,Eos,"72 h, time 3 day",1%
same,Fbg,"72 h, time 3 day",231.6 mg/dL
same,Hb,"72 h, time 3 day",13.6 g/dL
same,Ht,"72 h, time 3 day",39.8%
same,Lym,"72 h, time 3 day",78.4%
same,MCH,"72 h, time 3 day",21.5 pg
same,MCHC,"72 h, time 3 day",34.1%
same,MCV,"72 h, time 3 day",63.1 fL
same,Mono,"72 h, time 3 day",3%
same,Neu,"72 h, time 3 day",16%
same,PT,"72 h, time 3 day",12 s
same,Plat,"72 h, time 3 day",117.3 x10_4/uL
same,RBC,"72 h, time 3 day",631.4 x10_4/ul
same,Ret,"72 h, time 3 day",4.8%
same,WBC,"72 h, time 3 day",85 x10_2/uL
same,KIDNEY_L,"72 h, time 3 day",1 g
same,KIDNEY_R,"72 h, time 3 day",1 g
same,KIDNEY_TOTAL,"72 h, time 3 day",2 g
same,LIVER,"72 h, time 3 day",12 g
same,A/G,"72 h, time 3 day",1.6
same,ALP,"72 h, time 3 day",907.8 IU/L
same,ALT,"72 h, time 3 day",41.2 IU/L
same,AST,"72 h, time 3 day",69.4 IU/L
same,BUN,"72 h, time 3 day",14.8 mg/dL
same,CRE,"72 h, time 3 day",0.4 mg/dL
same,Ca,"72 h, time 3 day",11 mg/dL
same,Cl,"72 h, time 3 day",103.6 meq/L
same,DBIL,"72 h, time 3 day",0.098 mg/dL
same,GLC,"72 h, time 3 day",198.4 mg/dL
same,IP,"72 h, time 3 day",8 mg/dL
same,K,"72 h, time 3 day",4 meq/L
same,LDH,"72 h, time 3 day",216.6 IU/L
same,Na,"72 h, time 3 day",140.6 meq/L
same,PL,"72 h, time 3 day",148.4 mg/dL
same,RALB,"72 h, time 3 day",3.4 g/dL
same,TBIL,"72 h, time 3 day",0.2 mg/dL
same,TC,"72 h, time 3 day",80 mg/dL
same,TG,"72 h, time 3 day",107.4 mg/dL
same,TP,"72 h, time 3 day",5.6 g/dL
same,gamma-GTP,"72 h, time 3 day",1.4 IU/L
same,TERMINAL_BW,"[…], time 7 day",264.9 g
same,TERMINAL_BW,"[…], time 14 day",314.9 g
same,TERMINAL_BW,"[…], time 28 day",379.9 g
same,APTT,"[…], time 7 day",19.6 s
same,Bas,"[…], time 7 day",0%
same,Eos,"[…], time 7 day",0.8%
same,Fbg,"[…], time 7 day",216.8 mg/dL
same,Hb,"[…], time 7 day",13.9 g/dL
same,Ht,"[…], time 7 day",39.1%
same,Lym,"[…], time 7 day",82.2%
same,MCH,"[…], time 7 day",21.7 pg
same,MCHC,"[…], time 7 day",35.5%
same,MCV,"[…], time 7 day",61.2 fL
same,Mono,"[…], time 7 day",1.6%
same,Neu,"[…], time 7 day",12.8%
same,PT,"[…], time 7 day",12.5 s
same,Plat,"[…], time 7 day",121.8 x10_4/uL
same,RBC,"[…], time 7 day",639.4 x10_4/ul
same,Ret,"[…], time 7 day",5%
same,WBC,"[…], time 7 day",99 x10_2/uL
same,APTT,"[…], time 14 day",18.9 s
same,Bas,"[…], time 14 day",0%
same,Eos,"[…], time 14 day",1%
same,Fbg,"[…], time 14 day",234.2 mg/dL
same,Hb,"[…], time 14 day",14.5 g/dL
same,Ht,"[…], time 14 day",40.3%
same,Lym,"[…], time 14 day",77.8%
same,MCH,"[…], time 14 day",21.2 pg
same,MCHC,"[…], time 14 day",36.1%
same,MCV,"[…], time 14 day",58.7 fL
same,Mono,"[…], time 14 day",2.4%
same,Neu,"[…], time 14 day",18%
same,PT,"[…], time 14 day",12.1 s
same,Plat,"[…], time 14 day",118.7 x10_4/uL
same,RBC,"[…], time 14 day",686 x10_4/ul
same,Ret,"[…], time 14 day",4.3%
same,WBC,"[…], time 14 day",87.7 x10_2/uL
same,APTT,"[…], time 28 day",19.8 s
same,Bas,"[…], time 28 day",0%
same,Eos,"[…], time 28 day",1.2%
same,Fbg,"[…], time 28 day",234.2 mg/dL
same,Hb,"[…], time 28 day",15.5 g/dL
same,Ht,"[…], time 28 day",43.3%
same,Lym,"[…], time 28 day",77.2%
same,MCH,"[…], time 28 day",20.1 pg
same,MCHC,"[…], time 28 day",35.9%
same,MCV,"[…], time 28 day",56.2 fL
same,Mono,"[…], time 28 day",1.8%
same,Neu,"[…], time 28 day",18.6%
same,PT,"[…], time 28 day",12.2 s
same,Plat,"[…], time 28 day",113 x10_4/uL
same,RBC,"[…], time 28 day",769.8 x10_4/ul
same,Ret,"[…], time 28 day",2.2%
same,WBC,"[…], time 28 day",104.7 x10_2/uL
same,KIDNEY_L,"[…], time 7 day",1.1 g
same,KIDNEY_R,"[…], time 7 day",1.2 g
same,KIDNEY_TOTAL,"[…], time 7 day",2.3 g
same,KIDNEY_L,"[…], time 14 day",1.2 g
same,KIDNEY_R,"[…], time 14 day",1.2 g
same,KIDNEY_TOTAL,"[…], time 14 day",2.4 g
same,KIDNEY_L,"[…], time 28 day",1.4 g
same,KIDNEY_R,"[…], time 28 day",1.4 g
same,KIDNEY_TOTAL,"[…], time 28 day",2.8 g
same,LIVER,"[…], time 7 day",12.3 g
same,LIVER,"[…], time 14 day",14.2 g
same,LIVER,"[…], time 28 day",15.4 g
same,A/G,"[…], time 7 day",1.5
same,ALP,"[…], time 7 day",852.4 IU/L
same,ALT,"[…], time 7 day",37.2 IU/L
same,AST,"[…], time 7 day",65.4 IU/L
same,BUN,"[…], time 7 day",16.8 mg/dL
same,CRE,"[…], time 7 day",0.4 mg/dL
same,Ca,"[…], time 7 day",10.7 mg/dL
same,Cl,"[…], time 7 day",103.6 meq/L
same,DBIL,"[…], time 7 day",0.088 mg/dL
same,GLC,"[…], time 7 day",224.4 mg/dL
same,IP,"[…], time 7 day",7.8 mg/dL
same,K,"[…], time 7 day",3.7 meq/L
same,LDH,"[…], time 7 day",169.6 IU/L
same,Na,"[…], time 7 day",140.6 meq/L
same,PL,"[…], time 7 day",137.2 mg/dL
same,RALB,"[…], time 7 day",3.3 g/dL
same,TBIL,"[…], time 7 day",0.1 mg/dL
same,TC,"[…], time 7 day",76.8 mg/dL
same,TG,"[…], time 7 day",82.4 mg/dL
same,TP,"[…], time 7 day",5.5 g/dL
same,gamma-GTP,"[…], time 7 day",0.8 IU/L
same,A/G,"[…], time 14 day",1.4
same,ALP,"[…], time 14 day",785 IU/L
same,ALT,"[…], time 14 day",37.2 IU/L
same,AST,"[…], time 14 day",62.8 IU/L
same,BUN,"[…], time 14 day",17.6 mg/dL
same,CRE,"[…], time 14 day",0.5 mg/dL
same,Ca,"[…], time 14 day",10.5 mg/dL
same,Cl,"[…], time 14 day",103 meq/L
same,DBIL,"[…], time 14 day",0.08 mg/dL
same,GLC,"[…], time 14 day",193 mg/dL
same,IP,"[…], time 14 day",7.4 mg/dL
same,K,"[…], time 14 day",4.2 meq/L
same,LDH,"[…], time 14 day",205.8 IU/L
same,Na,"[…], time 14 day",141.8 meq/L
same,PL,"[…], time 14 day",137.8 mg/dL
same,RALB,"[…], time 14 day",3.5 g/dL
same,TBIL,"[…], time 14 day",0.1 mg/dL
same,TC,"[…], time 14 day",66.4 mg/dL
same,TG,"[…], time 14 day",104 mg/dL
same,TP,"[…], time 14 day",5.8 g/dL
same,gamma-GTP,"[…], time 14 day",1.2 IU/L
same,A/G,"[…], time 28 day",1.3
same,ALP,"[…], time 28 day",562.8 IU/L
same,ALT,"[…], time 28 day",38.8 IU/L
same,AST,"[…], time 28 day",61 IU/L
same,BUN,"[…], time 28 day",17.2 mg/dL
same,CRE,"[…], time 28 day",0.5 mg/dL
same,Ca,"[…], time 28 day",10.5 mg/dL
same,Cl,"[…], time 28 day",102.2 meq/L
same,DBIL,"[…], time 28 day",0.094 mg/dL
same,GLC,"[…], time 28 day",198.6 mg/dL
same,IP,"[…], time 28 day",7.2 mg/dL
same,K,"[…], time 28 day",3.8 meq/L
same,LDH,"[…], time 28 day",114.2 IU/L
same,Na,"[…], time 28 day",141.6 meq/L
same,PL,"[…], time 28 day",142.6 mg/dL
same,RALB,"[…], time 28 day",3.5 g/dL
same,TBIL,"[…], time 28 day",0.2 mg/dL
same,TC,"[…], time 28 day",70.4 mg/dL
same,TG,"[…], time 28 day",96 mg/dL
same,TP,"[…], time 28 day",6.1 g/dL
same,gamma-GTP,"[…], time 28 day",0.8 IU/L
